In patent US20070248705A1, “Agents for Activating the Transcription Factor Nrf2 and Foods Having Such Function” (KIRIN BEER KABUSHIKI KAISHA, priority 2004, published 2007):
“Also recorded” adds a separate entry of the source.

Tests used:
[1] = tested on: quinone reductase (QR) activity in mouse hepatoma Hepa1c1c7 cells; experiment: Induction of quinone reductase (QR) activity; type: cell-based; conditions: Hepa1c1c7 cells, 0.6, 1.7, 5, and 15 μM, 48 hours
Protocol: It has been known that quinone reductase (QR) activity is increased by increasing the expression of NAD(P)H:quinone oxidoreductase (NQO1) by Nrf2 activation (Proc Natl Acad Sci USA. 101, 10446-51 (2004)). Accordingly, isohumulones were allowed to act on mouse hepatoma Hepa1c1c7 cells (available from Dainippon Pharmaceutical Co., Ltd.) to examine whether the QR activity was induced.
The QR activity was measured in accordance with the method described in Analytical Biochemistry 169, 328-336 (1988).
A mouse hepatoma cell line Hepa1c1c7 was seeded on a 96-well plate (7-10×10^3 cells/well), 50 μl each of an α-MEM medium (Invitrogen) supplemented with 10% fetal bovine serum (HyClone) and penicillin-streptomycin (100 units/ml and 100 μg/ml, respectively; Sigma) was added, and the plate was incubated at […] in an atmosphere of 5% CO2 overnight. Next, the culture medium was replaced with a medium containing isomerized hop extract individually at a concentration of 1.9, 5.6, 16.7, or 50 μg/ml, or with a medium containing humulone (H), cohumulone (cH), adhumulone (aH), isohumulone (IH), isohumulone (IcH), or isohumulone (IaH) individually at a concentration of 0.6, 1.7, 5, and 15 μM and the plate was further incubated for 48 hours. Then, the cells in each well were broken using 0.08% digitonin and a 2 mM EDTA solution and absorption at 610 nm was measured by a menadione-formazan system using a microplate reader (Power Wave 200, Bio-Tek Instruments).
The QR inducing activity was calculated as a relative activity setting the activity of cells without addition to be 1 (n=3, mean±standard variation). Sulforaphane (Sul, available from Sigma) was used as a positive control.

ICAM-1 = ICAM-1 expression in vascular endothelial cells (HAEC), TNF-α stimulation, flow cytometry; type: cell-based, human; conditions: TNF-α 1.25 ng/ml
Protocol: Normal human aorta endothelial cells (HAEC, available from Cambrex) were cultured in a φ100 mm dish using 10 ml of endothelial cell medium kit-2 (Takara Shuzo) at 37° C. in an atmosphere of 5% CO2. Here, 30 μg/ml isomerized hop extract, 10 μM sulforaphane (Sul), or 10 mM N-acetyl cysteine (NAC) was allowed to act overnight. Next, after stimulating with the addition of human TNF-α (ProSpec-Tany TechnoGene) at a final concentration of 1.25 ng/ml), the cells were detached using a reagent for subculturing (Takara Shuzo) and flow cytometry analysis was carried out. Here, biotin anti-human ICAM antibody or biotin anti-human VCAM antibody (available from eBioscience) was used as a primary antibody and PE conjugated streptavidin (available from eBioscience) was used as a secondary antibody. A flow cytometer used was a FACSort analyzer (Becton Dickinson).

CD36 = experiment: Expression of genes controlled by Nrf2 in RAW264.7: CD36; type: cell-based, mouse; conditions: RAW264.7, 3 μM, positive control
Protocol: (§1) A mouse macrophage cell line RAW264.7 was seeded on a φ60 mm dish (9×10^5 cells), 2 ml of a D-MEM medium (Invitrogen) supplemented with 10% fetal bovine serum (HyClone) and penicillin-streptomycin (100 units/ml and 100 μg/ml, respectively; Sigma) was added, and the dish was incubated at 37° C. in an atmosphere of 5% CO2 for 2 days. The medium was replaced with a fresh medium containing individual samples and incubation was continued for another 20 hours. Then, the total RNA was prepared using TRIzol (Invitrogen) and purified using a RNeasy Mini kit (Qiagen) and an RNase-free DNase set (Qiagen). Further, cDNA was synthesized from 5 μg of the purified total RNA using a Thermo Script RT-PCR system (Invitrogen), and the amount of mRNA expression of various genes was determined using a FastStart DNA Master SYBR Green I kit (Roche) and a Light Cycler (Roche).
(§2) The amount of expression of the various genes was corrected by the amount of expression of the housekeeping gene PO and calculated as a relative expression level (n=2, mean±standard deviation). […]

catalase 1 (CAT1) = experiment: Expression of genes controlled by Nrf2 in RAW264.7: CAT1; type: cell-based, mouse; conditions: RAW264.7, 3 μM, positive control
Protocol: as §1, §2

[2] = tested on: thioredoxin reductase 1 (TXNRD1); experiment: Expression of genes controlled by Nrf2 in RAW264.7: TXNRD1; type: cell-based, mouse; conditions: RAW264.7, 3 μM, positive control
Protocol: as §1, §2

heme oxygenase 1 (HO1) = experiment: Expression of genes controlled by Nrf2 in RAW264.7: HO1; type: cell-based, mouse; conditions: RAW264.7, 3 μM, positive control
Protocol: as §1, §2

[3] = tested on: glutathione S-transferase mu1 (GSTM1); experiment: Expression of genes controlled by Nrf2 in RAW264.7: GSTM1; type: cell-based, mouse; conditions: RAW264.7, 3 μM, positive control
Protocol: as §1, §2

[4] = tested on: glutathione S-transferase pi2 (GSTP2); experiment: Expression of genes controlled by Nrf2 in RAW264.7: GSTP2; type: cell-based, mouse; conditions: RAW264.7, 3 μM, positive control
Protocol: as §1, §2

[5] = tested on: NAD(P)H:quinone oxidoreductase (NQO1); experiment: Expression of genes controlled by Nrf2 in RAW264.7: NQO1; type: cell-based, mouse; conditions: RAW264.7, 3 μM, positive control
Protocol: as §1, §2

[6] = tested on: glutamate cysteine ligase modifier subunit (GCLM); experiment: Expression of genes controlled by Nrf2 in RAW264.7: GCLM; type: cell-based, mouse; conditions: RAW264.7, 3 μM, positive control
Protocol: as §1, §2

[7] = tested on: glucose-6-phosphate dehydrogenase 2 (G6PD2); experiment: Expression of genes controlled by Nrf2 in RAW264.7: G6PD2; type: cell-based, mouse; conditions: RAW264.7, 3 μM, positive control
Protocol: as §1, §2

[8] = tested on: glucose-6-phosphate dehydrogenase, X-linked (G6PDX); experiment: Expression of genes controlled by Nrf2 in RAW264.7: G6PDX; type: cell-based, mouse; conditions: RAW264.7, 3 μM, positive control
Protocol: as §1, §2

[9] = tested on: mouse macrophage cell line RAW264.7; experiment: Amount of intracellular glutathione; type: cell-based; conditions: RAW264.7, 3 μM, positive control
Protocol: A mouse macrophage cell line RAW264.7 was seeded on a φ60 mm dish (7×10^5 cells), 2 ml of a D-MEM medium (Invitrogen) supplemented with 10% fetal bovine serum (HyClone) and penicillin-streptomycin (100 units/ml and 100 μg/ml, respectively; Sigma) was added, and the dish was incubated at 37° C. in an atmosphere of 5% CO2 for 2 days. The medium was replaced with a fresh medium containing individual samples and incubation was continued for another 20 hours. The samples added were isohumulone (IH(F)) and isohumulone (IcH(G)) at a concentration of 25 μM. The cells were recovered, broken by ultrasonication, and centrifuged to obtain the supernatant, and the amount of the total intracellular glutathione was measured using a glutathione assay kit (Cayman Chemical) (n=2, mean±standard deviation). As a positive control, 15dPGJ2 (Cayman Chemical) was used.

[10] = tested on: mouse macrophage cell line RAW264.7; experiment: Suppressive action on cell death by hydrogen peroxide; type: cell-based; conditions: RAW264.7, 3 μM, positive control
Protocol: A mouse macrophage cell line RAW264.7 (6×10^4 cells/well) was incubated on a 96-well plate in 100 μl of a D-MEM medium (Invitrogen) containing individual samples, 10% fetal bovine serum (HyClone), and penicillin-streptomycin (100 units/ml and 100 μg/ml, respectively; Sigma) at 37° C. in an atmosphere of 5% CO2 overnight. The samples added were isohumulone (IH(F)) and isohumulone (IcH(G)) at a concentration of 25 μM. Hydrogen peroxide (Wako Pure Chemical Industries) was added hereto at a final concentration of 0.8 or 1.0 mM and incubation was continued for another 2 hours. Then, adsorption at 440 nm was measured using a microplate reader (Power Wave 200, Bio-Tek Instruments) with a cell growth reagent WST-1 (Roche Diagnostics). The cell survival rate for each sample was calculated by setting the value without hydrogen peroxide as 100% (n=2, mean±standard variation). As a positive control, 15dPGJ2 (Cayman Chemical) was used.

TNF-α = experiment: Suppression of TNF-α production by macrophages (TPA and IFN-γ); type: cell-based, mouse; conditions: RAW264.7, TPA 400 nM and IFN-γ 10 units/ml, positive control
Protocol: A mouse macrophage cell line RAW264.7 (4×10^4 cells/well) was seeded on a 96-well plate, […] of a D-MEM medium (Invitrogen) containing each sample, 10% fetal bovine serum (HyClone), and penicillin-streptomycin (100 units/ml and 100 μg/ml, respectively; Sigma) was added, and the plate was incubated at 37° C. in an atmosphere of 5% CO2 for 4 hours. Then 150 μl of a medium containing TPA (phorbol 12-tetradecanoate 13-acetate, Sigma), mouse IFN-γ (interferon-γ, eBioscience), and each sample was added and incubation was carried out for 24 hours. TPA and IFN-γ were added at a final concentration of 400 nM and 10 units/ml, respectively. As samples, isomerized hop extract was added at a concentration of 5, 10, 20, and 30 μ/ml and isohumulone (IH(F)) and isohumulone (IcH(G)) were added individually at a concentration of 5, 10, 20, and 40 μM.
After completing incubation, the amount of TNF-α in the culture fluid was measured using a mouse TNF-α ELISA kit(eBioscience). The amount of TNF-α was expressed as a relative value by setting the value for the control as 100% (n=3, mean±standard variation). As a positive control, 15dPGJ2 (Cayman Chemical) was used.

CC(C)=CCC(=O)C1(O)C(O)=C(C(=O)CC(C)C)C(=O)C1CC=C(C)C (stereo not drawn) [IH (E), isohumulone]
QR inducing activity [1]: activity was higher in isohumulones having a higher trans form content

CC(C)=CCC(=O)C1(O)C(O)=C(C(=O)C(C)C)C(=O)C1CC=C(C)C (stereo not drawn) [IcH]
QR inducing activity [1]: higher activity than isohumulone (IaH)
QR inducing activity ([1]; listed as ICH): Concentration-dependent QR inducing activity

CC(C)=CCC(=O)C1(O)C(O)=C(C(=O)CC(C)C)C(=O)C1CC=C(C)C (stereo not drawn) [IH (H), isohumulone]
QR inducing activity [1]: activity was higher in isohumulones having a higher trans form content

CC(C)=CCC(=O)C1(O)C(O)=C(C(=O)CC(C)C)C(=O)C1CC=C(C)C (stereo not drawn) [IH, isohumulone]
QR inducing activity [1]: Concentration-dependent QR inducing activity; also recorded: higher activity than isohumulone (IaH)

CC(=O)N[C@@H](CS)C(=O)O [N-acetyl cysteine]
expression of ICAM-1 (ICAM-1; 10 mM overnight): Such changes are also recognized

C[S+]([O-])CCCCN=C=S (stereo not drawn) [sulforaphane]
expression of ICAM-1 (ICAM-1; 10 μM overnight): Such changes are also recognized

CCC(C)C(=O)C1=C(O)C(CC=C(C)C)=C(O)C(O)(CC=C(C)C)C1=O (stereo not drawn) [adhumulone, reference compound]
QR inducing activity [1]: no clear change

CCC(C)C(=O)C1=C(O)C(O)(C(=O)CC=C(C)C)C(CC=C(C)C)C1=O (stereo not drawn) [IaH]
QR inducing activity [1]: Concentration-dependent QR inducing activity

CC(C)=CCC1=C(O)C(O)(CC=C(C)C)C(=O)C(C(=O)C(C)C)=C1O (stereo not drawn) [cohumulone, reference compound]
QR inducing activity [1]: no clear change

CCCCC/C=C/C=C1/C(=O)C=C[C@@H]1C/C=C\CCCC(=O)O [15dPGJ2, 15-deoxy-D12,14-prostaglandin J2, reference compound]
expression of CD36 (CD36): augmented the expression
expression of CAT1 (catalase 1 (CAT1)): augmented the expression
expression of TRNRD1 [2]: augmented the expression
expression of HO1 (heme oxygenase 1 (HO1)): augmented the expression
expression of GSTM1 [3]: augmented the expression
expression of GSTP2 [4]: augmented the expression
expression of NQO1 [5]: augmented the expression
expression of GCLM [6]: augmented the expression
expression of G6PD2 [7]: augmented the expression
expression of G6PDX [8]: augmented the expression
amount of the total intracellular glutathione [9]: Increased the amount of the total intracellular glutathione
cell death by hydrogen peroxide (cell survival rate) ([10]; hydrogen peroxide 0.8 mM): suppressed cell death
cell death by hydrogen peroxide (cell survival rate) ([10]; hydrogen peroxide 1.0 mM): suppressed cell death
TNF-α production (TNF-α): concentration-dependently suppressed
